# Assay results: PubChem BioAssay (NCI)
#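 Tested at 5 concentrations; 48 h exposure; 96-well plates; endpoints linearly interpolated, else capped at highest concentration. TGI is the concentration that stops growth completely.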
# Tests used:
# Assay in all cases: DTP human tumour cell line panel, 48 h
# 786-0 renal = test system: 786-0 renal
# A549 NSCLC = test system: A549 NSCLC
# ACHN renal = test system: ACHN renal
# CAKI-1 renal = test system: CAKI-1 renal
# CCRF-CEM leukemia = test system: CCRF-CEM leukemia
# DLD-1 colon = test system: DLD-1 colon
# DMS 273 small cell lung = test system: DMS 273 small cell lung
# EKVX NSCLC = test system: EKVX NSCLC
# HCT-116 colon = test system: HCT-116 colon
# HCT-15 colon = test system: HCT-15 colon
# HL-60(TB) leukemia = test system: HL-60(TB) leukemia
# HOP-92 NSCLC = test system: HOP-92 NSCLC
# IGROV1 ovarian = test system: IGROV1 ovarian
# K-562 leukemia = test system: K-562 leukemia
# KM12 colon = test system: KM12 colon
# KM20L2 colon = test system: KM20L2 colon
# LOX IMVI melanoma = test system: LOX IMVI melanoma
# LXFL 529 NSCLC = test system: LXFL 529 NSCLC
# M14 melanoma = test system: M14 melanoma
# M19-MEL melanoma = test system: M19-MEL melanoma
# MALME-3M melanoma = test system: MALME-3M melanoma
# MOLT-4 leukemia = test system: MOLT-4 leukemia
# NCI-H226 lung = test system: NCI-H226 lung
# NCI-H23 lung = test system: NCI-H23 lung
# NCI-H522 lung = test system: NCI-H522 lung
# OVCAR-3 ovarian = test system: OVCAR-3 ovarian
# RPMI-8226 leukemia = test system: RPMI-8226 leukemia
# RXF-631 renal = test system: RXF-631 renal
# SF-268 CNS = test system: SF-268 CNS
# SF-295 CNS = test system: SF-295 CNS
# SF-539 CNS = test system: SF-539 CNS
# SK-MEL-2 melanoma = test system: SK-MEL-2 melanoma
# SK-MEL-28 melanoma = test system: SK-MEL-28 melanoma
# SK-OV-3 ovarian = test system: SK-OV-3 ovarian
# SN12C renal = test system: SN12C renal
# SNB-19 CNS = test system: SNB-19 CNS
# SNB-75 CNS = test system: SNB-75 CNS
# SNB-78 CNS = test system: SNB-78 CNS
# SR leukemia = test system: SR leukemia
# SW-620 colon = test system: SW-620 colon
# TK-10 renal = test system: TK-10 renal
# U251 CNS = test system: U251 CNS
# UACC-257 melanoma = test system: UACC-257 melanoma
# UACC-62 melanoma = test system: UACC-62 melanoma
# UO-31 renal = test system: UO-31 renal
# XF 498 CNS = test system: XF 498 CNS
# A498 renal = test system: A498 renal
# COLO 205 colon = test system: COLO 205 colon
# DMS 114 small cell lung = test system: DMS 114 small cell lung
# HCC-2998 colon = test system: HCC-2998 colon
# HOP-18 NSCLC = test system: HOP-18 NSCLC
# HOP-62 NSCLC = test system: HOP-62 NSCLC
# HT29 colon = test system: HT29 colon
# NCI-H460 lung = test system: NCI-H460 lung
# OVCAR-5 ovarian = test system: OVCAR-5 ovarian
# OVCAR-8 ovarian = test system: OVCAR-8 ovarian
# RXF 393 renal = test system: RXF 393 renal
# SK-MEL-5 melanoma = test system: SK-MEL-5 melanoma
smiles,measurement,setting,value
N#CCc1nnc(N)o1,TGI,786-0 renal,> 100 µM
same,TGI,A549 NSCLC,> 100 µM
same,TGI,ACHN renal,> 100 µM
same,TGI,CAKI-1 renal,> 100 µM
same,TGI,CCRF-CEM leukemia,> 100 µM
same,TGI,DLD-1 colon,> 100 µM
same,TGI,DMS 273 small cell lung,> 100 µM
same,TGI,EKVX NSCLC,> 100 µM
same,TGI,HCT-116 colon,> 100 µM
same,TGI,HCT-15 colon,> 100 µM
same,TGI,HL-60(TB) leukemia,> 100 µM
same,TGI,HOP-92 NSCLC,> 100 µM
same,TGI,IGROV1 ovarian,> 100 µM
same,TGI,K-562 leukemia,> 100 µM
same,TGI,KM12 colon,> 100 µM
same,TGI,KM20L2 colon,> 100 µM
same,TGI,LOX IMVI melanoma,> 100 µM
same,TGI,LXFL 529 NSCLC,> 100 µM
same,TGI,M14 melanoma,> 100 µM
same,TGI,M19-MEL melanoma,> 100 µM
same,TGI,MALME-3M melanoma,> 100 µM
same,TGI,MOLT-4 leukemia,> 100 µM
same,TGI,NCI-H226 lung,> 100 µM
same,TGI,NCI-H23 lung,> 100 µM
same,TGI,NCI-H522 lung,> 100 µM
same,TGI,OVCAR-3 ovarian,> 100 µM
same,TGI,RPMI-8226 leukemia,> 100 µM
same,TGI,RXF-631 renal,> 100 µM
same,TGI,SF-268 CNS,> 100 µM
same,TGI,SF-295 CNS,> 100 µM
same,TGI,SF-539 CNS,> 100 µM
same,TGI,SK-MEL-2 melanoma,> 100 µM
same,TGI,SK-MEL-28 melanoma,> 100 µM
same,TGI,SK-OV-3 ovarian,> 100 µM
same,TGI,SN12C renal,> 100 µM
same,TGI,SNB-19 CNS,> 100 µM
same,TGI,SNB-75 CNS,> 100 µM
same,TGI,SNB-78 CNS,> 100 µM
same,TGI,SR leukemia,> 100 µM
same,TGI,SW-620 colon,> 100 µM
same,TGI,TK-10 renal,> 100 µM
same,TGI,U251 CNS,> 100 µM
same,TGI,UACC-257 melanoma,> 100 µM
same,TGI,UACC-62 melanoma,> 100 µM
same,TGI,UO-31 renal,> 100 µM
same,TGI,XF 498 CNS,> 100 µM
COc1ccc(/C=C/C(=O)c2sc(-c3cccnc3)nc2C)cc1,TGI,786-0 renal,> 100 µM
same,TGI,A498 renal,> 100 µM
same,TGI,A549 NSCLC,> 100 µM
same,TGI,CAKI-1 renal,> 100 µM
same,TGI,CCRF-CEM leukemia,> 100 µM
same,TGI,COLO 205 colon,> 100 µM
same,TGI,DLD-1 colon,> 100 µM
same,TGI,DMS 114 small cell lung,> 100 µM
same,TGI,DMS 273 small cell lung,> 100 µM
same,TGI,EKVX NSCLC,> 100 µM
same,TGI,HCC-2998 colon,> 100 µM
same,TGI,HCT-15 colon,> 100 µM
same,TGI,HL-60(TB) leukemia,48.1 µM
same,TGI,HOP-18 NSCLC,> 100 µM
same,TGI,HOP-62 NSCLC,> 100 µM
same,TGI,HOP-92 NSCLC,> 100 µM
same,TGI,HT29 colon,> 100 µM
same,TGI,IGROV1 ovarian,> 100 µM
same,TGI,K-562 leukemia,> 100 µM
same,TGI,KM12 colon,44.5 µM
same,TGI,KM20L2 colon,> 100 µM
same,TGI,LOX IMVI melanoma,> 100 µM
same,TGI,M19-MEL melanoma,> 100 µM
same,TGI,MALME-3M melanoma,> 100 µM
same,TGI,MOLT-4 leukemia,99.5 µM
same,TGI,NCI-H226 lung,> 100 µM
same,TGI,NCI-H23 lung,> 100 µM
same,TGI,NCI-H460 lung,> 100 µM
same,TGI,NCI-H522 lung,> 100 µM
same,TGI,OVCAR-3 ovarian,88.3 µM
same,TGI,OVCAR-5 ovarian,> 100 µM
same,TGI,OVCAR-8 ovarian,> 100 µM
same,TGI,RPMI-8226 leukemia,26.2 µM
same,TGI,RXF 393 renal,90.8 µM
same,TGI,RXF-631 renal,> 100 µM
same,TGI,SF-268 CNS,> 100 µM
same,TGI,SF-295 CNS,> 100 µM
same,TGI,SF-539 CNS,65 µM
same,TGI,SK-MEL-2 melanoma,> 100 µM
same,TGI,SK-MEL-28 melanoma,> 100 µM
same,TGI,SK-MEL-5 melanoma,> 100 µM
same,TGI,SK-OV-3 ovarian,> 100 µM
same,TGI,SN12C renal,> 100 µM
same,TGI,SNB-75 CNS,> 100 µM
same,TGI,SNB-78 CNS,> 100 µM
same,TGI,SW-620 colon,> 100 µM
same,TGI,TK-10 renal,> 100 µM
same,TGI,U251 CNS,> 100 µM
same,TGI,UACC-257 melanoma,> 100 µM
same,TGI,UACC-62 melanoma,> 100 µM
same,TGI,UO-31 renal,> 100 µM
